Among the test systems are EKVX NSCLC; CAKI-1 renal; SK-MEL-2 melanoma; SK-OV-3 ovarian; RPMI-8226 leukemia; PC-3 prostate; NCI-H23 lung; NCI-H226 lung; SF-268 CNS; RXF 393 renal.
Assay in all cases: NCI-60 cell line screen, 48 h

SMILES strings stand for the structures.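 Protocol summary: plate cells (96-well), add compound at 5 concentrations, incubate 48 h, interpolate endpoints linearly. GI50 = concentration required for 50% inhibition of growth. At the TGI there is no net growth.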 A value given as a limit tells only on which side of the number the result lay.

`CC(=O)/C(C)=N/NC(=O)c1ccccc1O`: the GI50 in the assay on EKVX NSCLC, in the assay on CAKI-1 renal, with SK-MEL-2 melanoma, with SK-OV-3 ovarian, in the assay with RPMI-8226 leukemia and with NCI-H23 lung was over 100 µM in each case. Further, the GI50 in the assay with NCI-H226 lung, in the assay on SF-268 CNS and in the assay on RXF 393 renal was over 100 µM in each case. The TGI in the assay on EKVX NSCLC, in the assay with CAKI-1 renal, in the assay with SK-MEL-2 melanoma, in the assay on SK-OV-3 ovarian, in the assay on RPMI-8226 leukemia and with PC-3 prostate was over 100 µM each time. The TGI in the assay with NCI-H23 lung, in the assay on NCI-H226 lung, in the assay with SF-268 CNS and in the assay on RXF 393 renal was over 100 µM each time.
As for `COc1cc2nc3cc([N+](=O)[O-])ccc3c(NCCCNCCO)c2cc1OC`, the GI50 in the assay on EKVX NSCLC was 0.353 µM; with CAKI-1 renal, 2.62 µM; in the assay with SK-MEL-2 melanoma, 0.187 µM; in the assay with SK-OV-3 ovarian, 0.265 µM; in the assay on RPMI-8226 leukemia, 0.567 µM; with PC-3 prostate, 0.213 µM. In addition, the GI50 in the assay on NCI-H23 lung is 0.143 µM; in the assay on NCI-H226 lung, 0.196 µM; in the assay on SF-268 CNS, 0.126 µM; in the assay with RXF 393 renal, 0.186 µM. For the same compound, the TGI in the assay on EKVX NSCLC was 4.63 µM; in the assay with CAKI-1 renal it was 16.7 µM; in the assay on SK-MEL-2 melanoma, 0.389 µM; in the assay on SK-OV-3 ovarian it was 0.711 µM; in the assay with RPMI-8226 leukemia, 4.34 µM; in the assay on PC-3 prostate it was 0.483 µM. Also, the TGI came out at 0.616 µM in the assay with NCI-H23 lung, 0.505 µM with NCI-H226 lung, 0.478 µM in the assay with SF-268 CNS and 0.473 µM in the assay on RXF 393 renal.
Regarding `CC(C)(C)c1cc(Br)c(O)c(CN(Cc2cc(C(C)(C)C)cc(Br)c2O)C2CCCCC2)c1`, the TGI with EKVX NSCLC is 27.9 µM; with CAKI-1 renal it was 24.7 µM; in the assay on SK-MEL-2 melanoma, 25.8 µM; in the assay on SK-OV-3 ovarian, 29.2 µM; with RPMI-8226 leukemia it was 27.9 µM; with PC-3 prostate it was 28.1 µM. Besides, the TGI is 26.3 µM in the assay on NCI-H23 lung, 29.1 µM in the assay with NCI-H226 lung, 26.4 µM in the assay on SF-268 CNS and 22.6 µM in the assay on RXF 393 renal.
`NS(=O)(=O)c1ccc(NC2(C(=O)O)CCCC2)cc1`: the TGI with EKVX NSCLC, with CAKI-1 renal, with SK-MEL-2 melanoma, in the assay with SK-OV-3 ovarian, with RPMI-8226 leukemia and with PC-3 prostate was over 100 µM throughout. In addition, the TGI with NCI-H23 lung, with NCI-H226 lung, in the assay with SF-268 CNS and in the assay on RXF 393 renal was over 100 µM in each case.
On to `C=C1C(=O)O[C@@H]2/C=C(\C)CC/C=C(/COC(C)=O)C[C@@H](OC(C)=O)[C@@H]12`, for which the TGI is 25.8 µM in the assay on EKVX NSCLC; 20.2 µM with CAKI-1 renal; 31.8 µM in the assay with SK-MEL-2 melanoma; over 100 µM with SK-OV-3 ovarian; over 41.7 µM in the assay with RPMI-8226 leukemia; 36.4 µM in the assay on PC-3 prostate. Moreover, the TGI in the assay with NCI-H23 lung worked out at 32.5 µM; with NCI-H226 lung it was 64.1 µM; in the assay on SF-268 CNS it was 33.2 µM; in the assay on RXF 393 renal, 24.2 µM.
As for `N=C1C(c2nc3ccccc3s2)=C(O)CN1c1cc(C(F)(F)F)ccc1Cl`, the GI50 was 62.7 µM in the assay on EKVX NSCLC; 4.7 µM in the assay with CAKI-1 renal; 29.8 µM in the assay on SK-MEL-2 melanoma; 51.4 µM in the assay on SK-OV-3 ovarian; 7.46 µM with RPMI-8226 leukemia; 5.82 µM in the assay with PC-3 prostate. Also, the GI50 with NCI-H23 lung was 26.3 µM; with NCI-H226 lung it was 2.75 µM; in the assay with SF-268 CNS it was 28.8 µM; in the assay on RXF 393 renal, 18 µM. In addition, the TGI in the assay with EKVX NSCLC is over 100 µM; with CAKI-1 renal, 40.4 µM; in the assay with SK-MEL-2 melanoma, over 100 µM; in the assay with SK-OV-3 ovarian, over 100 µM; with RPMI-8226 leukemia, 53 µM; with PC-3 prostate it was 49.9 µM. The TGI was over 100 µM in the assay on NCI-H23 lung, 28.5 µM with NCI-H226 lung, over 100 µM in the assay on SF-268 CNS and over 100 µM with RXF 393 renal.
As to `COc1ccc(-c2n[nH]nc2-c2cc(OC)c(OC)c(OC)c2)cc1`, the GI50 in the assay on EKVX NSCLC is under 0.01 µM; in the assay on CAKI-1 renal, under 0.01 µM; in the assay with SK-MEL-2 melanoma it was under 0.01 µM; with SK-OV-3 ovarian, under 0.01 µM; in the assay with RPMI-8226 leukemia, under 0.01 µM; with PC-3 prostate, 0.0638 µM. Also, the GI50 was under 0.01 µM in the assay with NCI-H23 lung, under 0.0225 µM with NCI-H226 lung, 0.0156 µM in the assay on SF-268 CNS and under 0.01 µM with RXF 393 renal. In addition, the TGI is 29.6 µM with EKVX NSCLC; over 56.4 µM in the assay with CAKI-1 renal; 43.4 µM in the assay on SK-MEL-2 melanoma; 0.44 µM with SK-OV-3 ovarian; over 32.4 µM with RPMI-8226 leukemia; over 100 µM with PC-3 prostate. Moreover, the TGI is 36.4 µM in the assay on NCI-H23 lung, 82.7 µM with NCI-H226 lung, over 100 µM with SF-268 CNS and 26.2 µM with RXF 393 renal.

These data come from PubChem BioAssay (NCI).
